Consider 18 molecules from patent US10245264B2, “Substituted imidazo[1,2-a]pyrazines as soluble guanylate cyclase activators” (Merck Sharp & Dohme Corp., priority 2015, dated 2019).

The target in this test is T1, sGC α1/β1 heterodimer stably expressed in CHO-K1 cells (CHO-K1/sGC) (Homo sapiens, UniProt Q02108+Q02153).
T1 construct: expressed in transfected cells
T1 sequence (Q02108 1-690): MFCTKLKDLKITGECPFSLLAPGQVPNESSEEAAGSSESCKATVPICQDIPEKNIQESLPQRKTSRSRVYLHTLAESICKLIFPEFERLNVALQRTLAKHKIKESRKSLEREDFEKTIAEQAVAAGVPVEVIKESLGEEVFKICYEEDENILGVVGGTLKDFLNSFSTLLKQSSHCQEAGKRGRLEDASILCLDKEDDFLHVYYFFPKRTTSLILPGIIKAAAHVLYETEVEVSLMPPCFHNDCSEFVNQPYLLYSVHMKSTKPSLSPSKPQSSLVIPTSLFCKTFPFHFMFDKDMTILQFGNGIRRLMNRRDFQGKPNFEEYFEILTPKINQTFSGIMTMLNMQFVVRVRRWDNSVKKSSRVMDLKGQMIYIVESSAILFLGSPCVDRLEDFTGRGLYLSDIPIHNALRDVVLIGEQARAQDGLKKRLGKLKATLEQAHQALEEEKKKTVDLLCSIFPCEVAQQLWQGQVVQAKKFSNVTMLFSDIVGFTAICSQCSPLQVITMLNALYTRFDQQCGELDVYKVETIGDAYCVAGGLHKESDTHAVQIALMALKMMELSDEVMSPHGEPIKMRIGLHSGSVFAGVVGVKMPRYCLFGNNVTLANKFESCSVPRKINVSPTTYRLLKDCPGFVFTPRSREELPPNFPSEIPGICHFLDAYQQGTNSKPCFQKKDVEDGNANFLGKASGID
T1 sequence (Q02153 1-619): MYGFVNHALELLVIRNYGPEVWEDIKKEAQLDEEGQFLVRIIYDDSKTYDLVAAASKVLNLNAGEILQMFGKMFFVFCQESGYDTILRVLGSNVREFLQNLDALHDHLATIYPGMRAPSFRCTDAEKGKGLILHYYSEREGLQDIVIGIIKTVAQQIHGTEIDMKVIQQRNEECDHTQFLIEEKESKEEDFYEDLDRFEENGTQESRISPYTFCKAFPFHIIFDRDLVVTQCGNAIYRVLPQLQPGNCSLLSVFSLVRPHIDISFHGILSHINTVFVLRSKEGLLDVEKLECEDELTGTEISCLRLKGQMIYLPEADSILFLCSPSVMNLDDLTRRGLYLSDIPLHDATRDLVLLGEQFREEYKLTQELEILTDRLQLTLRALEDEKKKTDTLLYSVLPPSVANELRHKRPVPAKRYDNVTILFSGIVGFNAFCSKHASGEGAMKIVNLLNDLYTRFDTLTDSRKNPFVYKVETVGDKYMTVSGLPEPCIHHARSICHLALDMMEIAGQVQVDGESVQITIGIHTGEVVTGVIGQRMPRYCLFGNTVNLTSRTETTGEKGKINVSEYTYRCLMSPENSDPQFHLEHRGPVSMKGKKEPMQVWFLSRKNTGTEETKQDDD
Nature of the test: Cell-based sGC functional assay (CASA assay), cGMP generation by HTRF. The note with it: for Emax: CHO-K1, maximum cGMP production of Compound A set to 100% activation, read-out: % Act. (percent activation relative to Compound A); for EC50: CHO-K1/sGC cells, 1 hr at 37° C., 4P fit, presence or absence of DETA-NO not given, read-out: IP (nM) (inflection point). The method in brief:
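CHO-K1/sGC cells (4×10^5/mL) in EBSS with 5 mM MgCl2, 10 mM HEPES, 0.05% BSA and 0.5 mM IBMX, treated 1 hr at 37° C with compounds (2.5% DMSO) with or without 1 μM DETA-NO. cGMP measured by HTRF, expressed as % of a reference heme-dependent activator's maximum; inflection point and fold induction from 4P fit.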

With `CC1(c2ccc(F)cn2)C(=O)Nc2nc(-c3cn4ccnc4c(OCC4CC(F)(F)C4)n3)nc(N)c21` (stereo not drawn) [Example 33B, 4-amino-2-{8-[(3,3-difluoro-cyclobutyl)methoxy]imidazo [1,2-a]pyrazin-6-yl}-5-(5-fluoro-pyridin-2-yl)-5-methyl-5,7-dihydro-6H-pyrrolo[2,3-d] pyrimidin-6-one], the Emax amounted to 112% and the EC50 worked out at 1040 nM.
Regarding `CC1(c2ccc(F)cc2)C(=O)Nc2nc(-c3cn4cc(C(F)(F)F)nc4c(Oc4cccc(F)c4)n3)nc(N)c21` (stereo not drawn) [Example 35A, 4-Amino-2-(8-(3-fluorophenoxy)-2-(trifluoromethyl)imidazo[1,2-a]pyrazin-6-yl)-5-(4-fluorophenyl)-5-methyl-5H-pyrrolo[2,3-d]pyrimidin-6(7H)-one], the Emax worked out at 94% and the EC50 was determined as 468 nM.
As to `CC1(c2ccc(F)cc2)C(=O)Nc2nc(-c3cn4cc(C(F)(F)F)nc4c(Oc4ccccc4)n3)nc(N)c21` (stereo not drawn) [Example 36A, 4-amino-5-(4-fluorophenyl)-5-methyl-2-(8-phenoxy-2-(trifluoromethyl)imidazo[1,2-a]pyrazin-6-yl)-5H-pyrrolo[2,3-d] pyrimidin-6(7H)-one], the Emax is 129% and the EC50 came out at 1470 nM.
For `CC1(c2ccc(F)cc2)C(=O)Nc2nc(-c3cn4cc(C(F)(F)F)nc4c(Oc4cccc(F)c4F)n3)nc(N)c21` (stereo not drawn) [Example 37A, 4-amino-2-(8-(2,3-difluoro-phenoxy)-2-(trifluoromethyl)imidazo[1,2-a]pyrazin-6-yl)-5-(4-fluorophenyl)-5-methyl-5H-pyrrolo[2,3-d] pyrimidin-6(7H)-one], the Emax amounted to 83% and the EC50 was 719 nM.
With `CC1(c2ccc(F)cc2)C(=O)Nc2nc(-c3cn4cc(C5CC5)nc4c(Oc4cccc(F)c4)n3)nc(N)c21` (stereo not drawn) [Example 38A, 4-amino-2-[2-cyclopropyl-8-(3-fluorophenoxy)imidazo[1,2-a]pyrazin-6-yl]-5-(4-fluorophenyl)-5-methyl-5,7-dihydro-6H-pyrrolo[2,3-d] pyrimidin-6-one], the Emax was 92% and the EC50 amounted to 748 nM.
`CC1(c2ccc(F)cc2)C(=O)Nc2nc(-c3cn4ccnc4c(OCCC4CC4(F)F)n3)nc(N)c21` (stereo not drawn) [Example 41A, 4-amino-2-{8-[2-(2,2-difluoro-cyclopropyl)ethoxy]imidazo[1,2-a]pyrazin-6-yl}-5-(4-fluorophenyl)-5-methyl-5,7-dihydro-6H-pyrrolo[2,3-d] pyrimidin-6-one]: the Emax was found to be 94% and the EC50 came to 644 nM.
On the same counts, the results for `CC1(c2ccc(F)cc2)C(=O)Nc2nc(-c3cn4ccnc4c(OCCC4CC(F)(F)C4)n3)nc(N)c21` (stereo not drawn) [Example 42A, 4-amino-2-{8-[2-(3,3-difluoro-cyclobutyl)ethoxy]imidazo[1,2-a]pyrazin-6-yl}-5-(4-fluorophenyl)-5-methyl-5,7-dihydro-6H-pyrrolo[2,3-d] pyrimidin-6-one] are 119% and 1350 nM.
For `CC1(c2ccc(F)cc2)C(=O)Nc2nc(-c3cn4ccnc4c(OCC4CCCCC4)n3)nc(N)c21` (stereo not drawn) [Example 43A, 4-amino-2-[8-(cyclohexyl-methoxy)imidazo [1,2-a]pyrazin-6-yl]-5-(4-fluorophenyl)-5-methyl-5,7-dihydro-6H-pyrrolo[2,3-d] pyrimidin-6-one], in that order: 116% and 17 nM.
With `CC1(c2ccc(F)cc2)C(=O)Nc2nc(-c3cn4ccnc4c(OCCC4CC4)n3)nc(N)c21` (stereo not drawn) [Example 44A, 4-amino-2-[8-(2-cyclopropyl-ethoxy)imidazo [1,2-a]pyrazin-6-yl]-5-(4-fluorophenyl)-5-methyl-5,7-dihydro-6H-pyrrolo[2,3-d] pyrimidin-6-one], the Emax was determined as 100% and the EC50 came to 60 nM.
Consider `CC1(c2ccc(F)cc2)C(=O)Nc2nc(-c3cn4ccnc4c(OCC4CCCC4)n3)nc(N)c21` (stereo not drawn) [Example 45A, 4-amino-2-[8-(cyclopentyl-methoxy)imidazo [1,2-a]pyrazin-6-yl]-5-(4-fluoro-phenyl)-5-methyl-5,7-dihydro-6H-pyrrolo[2,3-d] pyrimidin-6-one], for which the Emax came out at 110% and the EC50 came to 13 nM.
Consider `CC1(c2ccc(F)cc2)C(=O)Nc2nc(-c3cn4ccnc4c(OC4CCCC4)n3)nc(N)c21` (stereo not drawn) [Example 46A, 4-amino-2-[8-(cyclopentyl-oxy)imidazo [1,2-a]pyrazin-6-yl]-5-(4-fluorophenyl)-5-methyl-5,7-dihydro-6H-pyrrolo[2,3-d] pyrimidin-6-one], for which the Emax worked out at 108% and the EC50 is 912 nM.
As for `CC1(c2ccc(Cl)cc2)C(=O)Nc2nc(-c3cn4ccnc4c(OCc4ccccc4)n3)nc(N)c21` (stereo not drawn) [Example 48A, 4-amino-2-[8-(benzyloxy)imidazo[1,2-a]pyrazin-6-yl]-5-(4-chlorophenyl)-5-methyl-5,7-dihydro-6H-pyrrolo[2,3-d] pyrimidin-6-one], the Emax turned out to be 106% and the EC50 came out at 26 nM.
As for `COCCNc1nc(-c2nc(N)c3c(n2)NC(=O)C3(C)c2ccc(F)cc2)cn2ccnc12` (stereo not drawn) [Example 52A, 4-amino-5-(4-fluorophenyl)-2-{8-[(2-methoxyethyl)amino]imidazo [1,2-a]pyrazin-6-yl}-5-methyl-5,7-dihydro-6H-pyrrolo[2,3-d] pyrimidin-6-one], the Emax was found to be 101% and the EC50 is 244 nM.
For `CC1(c2ccc(F)cc2)C(=O)Nc2nc(-c3cn4ccnc4c(NCC4CC(F)(F)C4)n3)nc(N)c21` (stereo not drawn) [Example 53A, 4-amino-2-(8-{[(3,3-difluoro-cyclobutyl)methyl]amino}imidazo[1,2-a]pyrazin-6-yl)-5-(4-fluoro-phenyl)-5-methyl-5,7-dihydro-6H-pyrrolo[2,3-d] pyrimidin-6-one], in that order: 110% and 948 nM.
For `CCC1(CNc2nc(-c3nc(N)c4c(n3)NC(=O)C4(C)c3ccc(F)cc3)cn3ccnc23)CC1` (stereo not drawn) [Example 54A, 4-amino-2-(8-{[(1-ethyl-cyclopropyl)methyl]amino}imidazo[1,2-a]pyrazin-6-yl)-5-(4-fluoro-phenyl)-5-methyl-5,7-dihydro-6H-pyrrolo[2,3-d] pyrimidin-6-one], in that order: 98% and 266 nM.
For `CC1(c2ccc(F)cc2)C(=O)Nc2nc(-c3cn4ccnc4c(NCC4CCCCC4)n3)nc(N)c21` (stereo not drawn) [Example 55A, 4-amino-2-{8-[(cyclohexyl-methyl)amino]imidazo[1,2-a]pyrazin-6-yl}-5-(4-fluoro-phenyl)-5-methyl-5,7-dihydro-6H-pyrrolo[2,3-d] pyrimidin-6-one], in that order: 92% and 35 nM.
Turning to `CC1(c2ccc(Cl)cc2)C(=O)Nc2nc(-c3cn4ccnc4c(NCC4CC4(C)C)n3)nc(N)c21` (stereo not drawn) [Example 56A, 4-amino-5-(4-chlorophenyl)-2-(8-{[(2,2-dimethylcyclo-propyl)methyl]amino}imidazo [1,2-a]pyrazin-6-yl)-5-methyl-5,7-dihydro-6H-pyrrolo [2,3-d]pyrimidin-6-one], the Emax was found to be 110% and the EC50 was determined as 51 nM.
On the same counts, the results for `CCC1(CNc2nc(-c3nc(N)c4c(n3)NC(=O)C4(C)c3ccc(Cl)cc3)cn3ccnc23)CC1` (stereo not drawn) [Example 57A, 4-amino-5-(4-chlorophenyl)-2-(8-{[(1-ethylcyclo-propyl)methyl]amino}imidazo [1,2-a]pyrazin-6-yl)-5-methyl-5,7-dihydro-6H-pyrrolo[2,3-d] pyrimidin-6-one] are 123% and 47 nM.
